Experiments:
Assay type in all cases: physicochemical
[1] = Solubility of chelate ester in water
[2] = Hydrolysis rate of chelate esters followed by Fe-TSV (released chelate acid); conditions: for rate of hydrolysis (in words): 20 wt % ester in demi water, 90° C., Fe-TSV, FIG. 1-3; for solubility of the chelate acid compared with EDTA acid: observed on hydrolysis of the esters, solid EDTA is formed; for effect of pH on hydrolysis rate (release of chelating agent): pH adjusted with caustic to 7 versus ~1, FIG. 4
Protocol: (§1) In several experiments the hydrolysis of the chelate esters of Example 2 was investigated. First, the hydrolysis rate of the chelate esters was determined with ^1H and ^13C-NMR. […] Secondly, the hydrolysis rate was followed by determination of the Fe-TSV, which gives the concentration of the released chelate acid. To determine the Fe-TSV the chelate ester was added to demi water in a 5 ml glass vial, resulting in an ester concentration of 20 wt %. The mixture was continuously homogenized by shaking and a treatment in the ultrasonic bath. Subsequently, the vial was placed in a stove at 90° C. to simulate well conditions. After certain time intervals a sample was taken and analyzed on Fe-TSV. The percentage of hydrolysis is defined by:
The calculated chelate concentration at the start is calculated from the intake of the ester. The value is corrected for the purity as measured by NMR, assuming a 100% conversion of the corresponding chelate.

[3] = pH of the ester in water
[4] = Viscosity of chelate esters, Brookfield DV-II viscometer, spindle 25; conditions: 25° C.
Protocol: (§2) In addition, where possible, the following physical properties of the chelate esters were determined at 25° C.: • Viscosity in mPas • Surface tension in mN/m • Density in kg/m^3
(§3) The viscosity was determined with a Brookfield DV-II viscometer equipped with spindle 25, which is suitable to measure high-viscous liquids. The principle of operation of the DV-II is to drive a specific spindle which is immersed in the test fluid. The viscous drag of the fluid against the spindle is measured by a calibrated spring. The viscosity is calculated from the rotational speed, type, and the torque of the spindle. In addition, the surface tension was determined with a bubble pressure tensiometer. The tensiometer produces gas bubbles at a constant rate and blows them through a capillary which is submerged in the sample liquid. The pressure (P) inside of the bubble continues to increase and the maximum value is obtained when the bubble has the completely hemispherical shape whose radius corresponds exactly to the radius of the capillary.

[5] = Surface tension, bubble pressure tensiometer; conditions: 25° C.
Protocol: as §2, §3
By following each step of the bubble formation, change of bubble radius, and the corresponding pressure, the dynamic surface tension can be determined using the Laplace equation in the reduced form for spherical bubble shape within the liquid, equation: σ=(ΔPmax·Rcap)/2 where: σ=dynamic surface tension ΔPmax=maximum pressure drop Rcap=radius of capillary

[6] = Density, gravimetric (0.50 ml in weighted pipette); conditions: for Density: 25° C.; for density compared with water (in words): not measurable for the highly viscous esters
Protocol: as §2
The density was determined gravimetrically by slowly sucking up exactly 0.50 ml of the chelate ester in a weighted pipette and by weighing the total weight of the pipette and the chelate-ester, the weight of 0.50 ml of chelate ester could be determined.

[7] = Hydrolysis rate of chelate esters by 1H and 13C-NMR; conditions: 70° C.
Protocol: as §1, with “Fe-TSV.” for “Fe-TSV. The percentage of hydrolysis is defined by:”

[8] = 1 wt % / 1% slurry in water, product as formed (acidic)

| Soluble in water (pH = 0.5) [1] | Viscosity [4] | Surface tension [5] | Density [6] | Compound | further results |
| --- | --- | --- | --- | --- | --- |
| Yes | – | – | – | COC(=O)CN(CCN(CC(=O)OC)CC(=O)OC)CC(=O)OC [EDTA 4 methyl ester, EDTA-tetramethyl ester, reference compound] | Soluble in water (pH = ~7) [1]: Yes; rate of hydrolysis (in words) [2]: hydrolyzed much faster than the corresponding GLDA or MGDA-methyl ester |
| – | – | – | – | O=C(O)CC[C@@H](C(=O)O)N(CC(=O)O)CC(=O)O [GLDA, glutamic acid N,N-diacetic acid] | solubility of the chelate acid compared with EDTA acid [2]: significantly higher |
| – | – | – | – | GLDA Mono Ethyl Ester | pH [3, 8]: 1.8 |
| no (2 phases) | 178 mPas | 69.2 mN/m | 1.11 g/mL | CCCOC(=O)CCC(C(=O)OCCC)N(CC(=O)OCCC)CC(=O)OCCC (stereo not shown) [GLDA 4 propyl ester, GLDA-tetrapropyl ester] | Soluble in water (pH = ~7) [1]: no (2 phases); effect of pH on hydrolysis rate (release of chelating agent) [2]: decreased slightly with increasing pH |
| Yes | – | – | – | COC(=O)CCC(C(=O)OC)N(CC(=O)OC)CC(=O)OC (stereo not shown) [GLDA 4 methyl ester, GLDA-tetramethyl ester] | time to almost complete hydrolysis [7]: ~2 days; rate of hydrolysis (in words) [2]: nearly the same speed of hydrolysis |
| Yes | 260,000 mPas | 51.3 mN/m | > 1 g/mL | CCCOC(=O)CN(CCN(CC(=O)OCCC)CC(=O)OCCC)CC(=O)OCCC [EDTA 4 propyl ester, EDTA-tetrapropyl ester, reference compound] | density compared with water (in words) [6]: clearly higher than water; Soluble in water (pH = ~7) [1]: no (2 phases); effect of pH on hydrolysis rate (release of chelating agent) [2]: decreased slightly with increasing pH |
| – | – | – | – | CC(C(=O)O)N(CC(=O)O)CC(=O)O (stereo not shown) [MGDA, methylglycine N,N-diacetic acid] | solubility of the chelate acid compared with EDTA acid [2]: significantly higher |
| Yes | – | – | – | COC(=O)CN(CC(=O)OC)C(C)C(=O)OC (stereo not shown) [MGDA 3 methyl ester, MGDA-trimethyl ester] | time to almost complete hydrolysis [7]: ~2 days; rate of hydrolysis (in words) [2]: nearly the same speed of hydrolysis |
| no (2 phases) | 8,100 mPas | 52.6 mN/m | > 1 g/mL | CCCCOC(=O)CN(CCN(CC(=O)OCCCC)CC(=O)OCCCC)CC(=O)OCCCC [EDTA 4 butyl ester, EDTA-tetrabutyl ester, reference compound] | density compared with water (in words) [6]: clearly higher than water |
| no (2 phases) | 38 mPas | 41.3 mN/m | 1.04 g/mL | CCCCOC(=O)CCC(C(=O)OCCCC)N(CC(=O)OCCCC)CC(=O)OCCCC (stereo not shown) [GLDA 4 butyl ester, GLDA-tetrabutyl ester] | – |
| – | – | – | – | CCOC(=O)CCC(C(=O)OCC)N(CC(=O)OCC)CC(=O)OCC (stereo not shown) [GLDA tetra ethyl ester] | pH ([3]; 1% slurry in water, less acidic product after treatment with 1 eq Na2CO3): ~9; pH [3, 8]: 1.8 |
| no (2 phases) | 67 mPas | 47.8 mN/m | 1.06 g/mL | CCCCOCCOC(=O)CCC(C(=O)OCCOCCCC)N(CC(=O)OCCOCCCC)CC(=O)OCCOCCCC (stereo not shown) [GLDA 4 EGMBE, GLDA-tetraEMGBE ester] | – |

Reference: patent US9556378B2, “Chelating agent precursors, fluids containing them, and their use” (AKZO NOBEL CHEMICALS INTERNATIONAL B.V., priority 2011, dated 2017)
